Source: patent US20250188110A1, “SPECIFIC SMALL MOLECULE INHIBITORS THAT BLOCK KMT9 METHYLTRANSFERASE ACTIVITY AND FUNCTION” (ALBERT-LUDWIGS-UNIVERSITÄT FREIBURG, priority 2021, published 2025)

Key:
KMT9 [1] = molecular target: T1, KMT9 (Homo sapiens, UniProt Q9Y5N5); assay: KMT9 methyltransferase inhibition assay, 3H-SAM scintillation (entries 1-154); assay type: biochemical; details: entries 1-154: 3H-SAM assay, 25 nM KMT9, 5 μM ETF1
T1 sequence (Q9Y5N5 1-214): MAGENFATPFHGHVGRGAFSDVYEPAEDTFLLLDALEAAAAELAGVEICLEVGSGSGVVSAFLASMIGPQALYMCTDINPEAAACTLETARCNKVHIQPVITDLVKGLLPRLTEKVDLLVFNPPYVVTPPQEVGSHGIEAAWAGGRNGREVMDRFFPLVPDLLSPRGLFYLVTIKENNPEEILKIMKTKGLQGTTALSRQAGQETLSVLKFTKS
T1 sequence (Q9UI30 1-120 isoform Q9UI30-2 partner): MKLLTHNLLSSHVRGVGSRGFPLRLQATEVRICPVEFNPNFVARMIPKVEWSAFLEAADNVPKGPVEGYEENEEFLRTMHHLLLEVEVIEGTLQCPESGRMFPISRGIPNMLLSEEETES
Procedure, shortened: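 Tritium transfer from SAM (0.3 μM 3H-SAM, 0.7 μM unlabelled, final) to 5 μM ETF1 fragment by 25 nM KMT9 was measured after 2 h at 30° C, pH 8.5. Precipitated peptide was collected on filters and scintillation counted; IC50 came from a four-parameter fit of inhibition normalised to controls.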

KMT9 [2] = molecular target: T1, KMT9; assay: Microscale thermophoresis (MST) KMT9 binding; details: microscale thermophoresis, His-tag labelled KMT9 (20 nM); read-out: MST
Procedure, shortened: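 Kd from microscale thermophoresis: compound series against 20 nM His-KMT9 labelled via RED-Tris-NTA, buffer 25 mM HEPES (pH 7.5)/100 mM NaCl/1 mM DTT/0.05% Tween, 40% MST power, 100% LED. Reported as classes: A ≤10 nM, B >10–100 nM, C >100–1000 nM, D >1000 nM.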

KMT9 [3] = molecular target: T1, KMT9; assay: KMT9 thermal shift assay (SyproOrange); assay type: binding; details: ΔTm; 500 µM compound, 2 μM KMT9, 5X SO; read-out: Thermal shift
Procedure, shortened: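 ΔTm versus DMSO-only control is reported in bins (>20 K, 15–20 K, 10–15 K, ≤10 K), using Tm from Boltzmann sigmoidal fits of SyproOrange melt curves. KMT9 with compound in pH 8.5 BTP buffer containing MgCl2 and DTT was preincubated at 25° C, then ramped 1° C per 15 s up to 95° C.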

Row | Compound | IC50 (KMT9 [1]) [µM] | Kd (KMT9 [2]) [µM] | ΔTm at 500 µM (KMT9 [3]) [°C]
1 | CNc1ncnc2c1ccn2[C@@H]1C[C@H](C(=O)NCC2CCCCN2)[C@@H](O)[C@H]1O (stereo partly drawn) [350 (254), (1S,2R,3S,4R)-2,3-dihydroxy-4-(4-(methylamino)-7H-pyrrolo[2,3-d]pyrimidin-7-yl)-N-(piperidin-2-ylmethyl) cyclopentane-1-carboxamide] | > 10 | > 1 | ≤ 10
2 | CNc1ncnc2c1ccn2[C@@H]1C[C@H](C(=O)N(C)CCCNCCc2cccc(Oc3ccccc3)c2)[C@@H](O)[C@H]1O [351 (255), (1S,2R,3S,4R)-2,3-dihydroxy-N-methyl-4-(4-(methylamino)-7H-pyrrolo[2,3-a]pyrimidin-7-yl)-N-(3-((3-phenoxyphenethyl)amino)propyl) cyclopentane-1-carboxamide] | 1 to 10 | 0.01 to 0.1 | 10 to 15
3 | CNc1ncnc2c1ccn2[C@@H]1C[C@H](C(=O)NCCCNCc2ccc(Oc3ccc(Cl)cc3)c(F)c2)[C@@H](O)[C@H]1O [352 (256), (1S,2R,3S,4R)—N-(3-((4-(4-chlorophenoxy)-3-fluorobenzyl)amino)propyl)-2,3-dihydroxy-4-(4-(methylamino)-7H-pyrrolo[2.3-d]pyrimidin-7-yl)cyclopentane-1-carboxamide] | > 10 | 0.1 to 1 | 10 to 15
4 | CNc1ncnc2c1ccn2[C@@H]1C[C@H](C(=O)NCCCNCc2cccc(Oc3ccccc3)c2)[C@@H](O)[C@H]1O [353 (257), (1S,2R,3S,4R)-2,3-dihydroxy-4-(4-(methylamino)-7H-pyrrolo[2,3-d]pyrimidin-7-yl)-N-(3-((3-phenoxybenzyl)amino)propyl) cyclopentane-1-carboxamide] | 1 to 10 | 0.1 to 1 | 10 to 15
5 | CNc1ncnc2c1ccn2[C@@H]1C[C@H](C(=O)NCCCNCCc2cccc(Oc3ccccc3)c2)[C@@H](O)[C@H]1O [354 (258), (1S,2R,3S,4R)-2,3-dihydroxy-4-(4-(methylamino)-7H-pyrrolo[2,3-d]pyrimidin-7-yl)-N-(3-((3-phenoxyphenethyl)amino)propyl) cyclopentane-1-carboxamide] | 1 to 10 | 0.01 to 0.1 | 15 to 20
6 | CNc1ncnc2c1ccn2[C@@H]1C[C@H](C(=O)NCCCNCCc2ccc(Oc3ccc(Cl)cc3)c(F)c2)[C@@H](O)[C@H]1O [355 (259), (1S,2R,3S,4R)—N-(3-((4-(4-chlorophenoxy)-3-fluorophenethyl)amino)propyl)-2,3-dihydroxy-4-(4-(methylamino)-7H-pyrrolo[2,3-a]pyrimidin-7-yl) cyclopentane-1-carboxamide] | 0.1 to 1 | 0.1 to 1 | 10 to 15
7 | CNc1ncnc2c1ccn2[C@@H]1C[C@H](C(=O)NCCNCCc2cccc(Oc3ccccc3)c2)[C@@H](O)[C@H]1O [356 (260), (1S,2R,3S,4R)-2,3-dihydroxy-4-(4-(methylamino)-7H-pyrrolo[2,3-d]pyrimidin-7-yl)-N-(2-((3-phenoxyphenethyl)amino)ethyl) cyclopentane-1-carboxamide] | > 10 | 0.1 to 1 | 10 to 15
8 | CNc1ncnc2c1ccn2[C@@H]1C[C@H](CNCC(F)(F)CNCCc2ccc3ccccc3c2)[C@@H](O)[C@H]1O [357 (261), (1S,2R,3R,5R)-3-(((2,2-difluoro-3-((2-(naphthalen-2-yl)ethyl)amino)propyl)amino)methyl)-5-(4-(methylamino)-7H-pyrrolo[2,3-a]pyrimidin-7-yl) cyclopentane-1,2-diol] | > 10 | > 1 | ≤ 10
9 | CNc1ncnc2c1ccn2[C@@H]1C[C@H](CN2CC(CNCCc3ccc4ccccc4c3)C2)[C@@H](O)[C@H]1O [360 (264), (1R,2S,3R,5R)-3-(4-(methylamino)-7H-pyrrolo[2,3-d]pyrimidin-7-yl)-5-((3-(((2-(naphthalen-2-yl)ethyl)amino)methyl)azetidin-1-yl)methyl) cyclopentane-1,2-diol] | > 10 | > 1 | ≤ 10
10 | CNc1ncnc2c1ccn2[C@@H]1C[C@H](CN(CCCNCCc2cccc(Oc3ccccc3)c2)CC2CC2)[C@@H](O)[C@H]1O [360 (270)] | > 10 | 0.1 to 1 | ≤ 10
11 | CNc1ncnc2c1ccn2[C@@H]1C[C@H](CN(CCCNCCc2cccc(Oc3ccccc3)c2)C(C)C)[C@@H](O)[C@H]1O [362 (266), (1S,2R,3R,5R)-3-((isopropyl(3-((3-phenoxyphenethyl)amino)propyl)amino)methyl)-5-(4-(methylamino)-7H-pyrrolo[2,3-d]pyrimidin-7-yl) cyclopentane-1,2-diol] | 1 to 10 | 0.1 to 1 | 10 to 15
12 | CCN(CCCNCCc1cccc(Oc2ccccc2)c1)C[C@H]1C[C@@H](n2ccc3c(NC)ncnc32)[C@H](O)[C@@H]1O [364 (268), (1S,2R,3R,5R)-3-((ethyl(3-((3-phenoxyphenethyl)amino)propyl)amino)methyl)-5-(4-(methylamino)-7H-pyrrolo[2,3-d]pyrimidin-7-yl) cyclopentane-1,2-diol] | 1 to 10 | 0.1 to 1 | 10 to 15
13 | CNc1ncnc2c1ccn2[C@@H]1C[C@H](CN(CCCNCCc2cccc(Oc3ccccc3)c2)NC)[C@@H](O)[C@H]1O [367 (271), (1S,2R,3R,5R)-3-((2-methyl-1-(3-((3-phenoxyphenethyl)amino)propyl) hydrazineyl)methyl)-5-(4-(methylamino)-7H-pyrrolo[2,3-d]pyrimidin-7-yl) cyclopentane-1,2-diol] | > 10 | > 1 | ≤ 10
14 | CNc1ncnc2c1ccn2[C@@H]1C[C@H](CNCCCNCCc2ccc3ccccc3c2)[C@@H](O)[C@H]1O [368 (272), (1R,2S,3R,5R)-3-(4-(methylamino)-7H-pyrrolo[2,3-a]pyrimidin-7-yl)-5-(((3-((2-(naphthalen-2-yl)ethyl)amino)propyl)amino)methyl) cyclopentane-1,2-diol] | > 10 | > 1 | 10 to 15
15 | CNc1ncnc2c1ccn2[C@@H]1C[C@H](CNCCCNCCc2ccc(Oc3ccc(Cl)cc3)c(F)c2)[C@@H](O)[C@H]1O [370 (274), (1S,2R,3R,5R)-3-(((3-((4-(4-chlorophenoxy)-3-fluorophenethyl)amino)propyl)amino)methyl)-5-(4-(methylamino)-7H-pyrrolo[2,3-a]pyrimidin-7-yl) cyclopentane-1,2-diol] | 1 to 10 | > 1 | 10 to 15
16 | CNc1ncnc2c1ccn2[C@@H]1C[C@H](CNCCCNCCc2cccc(Sc3ccccc3)c2)[C@@H](O)[C@H]1O [372 (276), (1R,2S,3R,5R)-3-(4-(methylamino)-7H-pyrrolo[2,3-a]pyrimidin-7-yl)-5-(((3-((3-(phenylthio)phenethyl)amino)propyl)amino)methyl) cyclopentane-1,2-diol] | 1 to 10 | 0.1 to 1 | 10 to 15
17 | CCN(CCCNCCc1ccc2ccccc2c1)C[C@H]1C[C@@H](n2ccc3c(NC)ncnc32)[C@H](O)[C@@H]1O [375 (279), (1S,2R,3R,5R)-3-((ethyl(3-((2-(naphthalen-2-yl)ethyl)amino)propyl)amino)methyl)-5-(4-(methylamino)-7H-pyrrolo[2,3-d]pyrimidin-7-yl) cyclopentane-1,2-diol] | > 10 | 0.1 to 1 | 10 to 15
18 | CNc1ncnc2c1ccn2[C@@H]1C[C@H](CN(CCCNCCc2ccc3ccccc3c2)CC(F)(F)F)[C@@H](O)[C@H]1O [377 (281), (1R,2S,3R,5R)-3-(4-(methylamino)-7H-pyrrolo[2,3-d]pyrimidin-7-yl)-5-(((3-((2-(naphthalen-2-yl)ethyl)amino)propyl)(2,2,2-trifluoroethyl)amino)methyl) cyclopentane-1,2-diol] | > 10 | > 1 | ≤ 10
19 | NC[C@H]1O[C@@H](n2cc3c4c(ncnc42)NCCC3)[C@H](O)[C@@H]1O [416 (287), (2R,3S,4R,5R)-2-(aminomethyl)-5-(6,7,8,9-tetrahydro-2H-2,3,5,6-tetraazabenzo[cd]azulen-2-yl) tetrahydrofuran-3,4-diol] | > 10 | > 1 | ≤ 10
20 | CNCCC(=O)N(C)C[C@H]1C[C@@H](n2ccc3c(NC)ncnc32)[C@H](O)[C@@H]1O [417 (288), N-(((1R,2R,3S,4R)-2,3-dihydroxy-4-(4-(methylamino)-7H-pyrrolo[2,3-d]pyrimidin-7-yl)cyclopentyl)methyl)-N-methyl-3-(methylamino)propanamide] | > 10 | > 1 | ≤ 10
